Like-named read-outs stand apart in the source and are kept apart here.
Key:
[1] = male, Sprague Dawley, rat, in vivo, 5 mg/kg
Experimental: (§1) The combo dose was prepared by mixing both by 1:1 to yield a concentration of 5 mg/mL for each compound (pH˜6) for intravenous and oral administration. The obtained solution was clear and colourless.
(§2) Male Sprague Dawley rats (body weight: 170 g to 220 g) were used in this study. Before the pharmacokinetic studies, animals were randomly assigned to the treatment groups.
(§3) The plasma samples and the dose formulation were stored at −20° C. until bioanalysis.
(§4) Plasma samples (0.1 mL) were transferred to Eppendorff tube, then 20 μL methanol, and 300 μL IS solution (50 ng/mL) were added to it. After Vortexing for 1 min and centrifuging for 5 min at 15,000 rpm, 5 μL of supernatant was injected into LC/MS/MS.
(§5) The concentrations in plasma below the limit of quantitation (LOQ=5 ng/mL) were designated as zero. The pharmacokinetic data analysis was performed using noncompartmental analysis modules in WinNonlin2.0.

in vivo = settings: male, Sprague Dawley, rat, 5 mg/kg
Experimental: as §1, §2, §3, §4, §5

[2] = test system: mtDNA-encoded protein synthesis; test: Mitochondria Toxicity Study (Complex IV/Frataxin ratio in HepG2 cells); settings: conclusion in words
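Wherever Plasma Concentration Mean is given: drug levels in rat plasma quantified by LC/MS/MS after a combined two-compound formulation, quantitation limit 5 ng/mL with lower values set to zero, parameters from noncompartmental analysis.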
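Wherever Plasma Concentration is given: drug levels in rat plasma quantified by LC/MS/MS after a combined two-compound formulation, quantitation limit 5 ng/mL with lower values set to zero, parameters from noncompartmental analysis.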
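Wherever Vd is given: drug levels in rat plasma quantified by LC/MS/MS after a combined two-compound formulation, quantitation limit 5 ng/mL with lower values set to zero, parameters from noncompartmental analysis.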
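Wherever volume of distribution at terminal phase as % of total body water is given: drug levels in rat plasma quantified by LC/MS/MS after a combined two-compound formulation, quantitation limit 5 ng/mL with lower values set to zero, parameters from noncompartmental analysis.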

In the case of `CC(=O)NC[C@H]1CN(c2ccc(N3CCOCC3)c(F)c2)C(=O)O1` [linezolid], the “volume of distribution at terminal phase as % of total body water” value ([1]; iv) is reported as 131.34%, the “Plasma Concentration Mean” value ([1]; iv, 0.25 hr) is reported as 4.60718 µg/mL and the “Plasma Concentration Mean” value ([1]; iv, 0.5 hr) is reported as 3.77624 µg/mL. For the same compound, the “Plasma Concentration Mean” value ([1]; iv, 1 hr) was 2.79688 µg/mL, the “Plasma Concentration Mean” value ([1]; iv, 2 hr) was 1.43616 µg/mL and the “Plasma Concentration Mean” value ([1]; iv, 4 hr) was 0.32008 µg/mL. For the same compound, the “Plasma Concentration Mean” value ([1]; iv, 6 hr) was 0.06305 µg/mL, the “Plasma Concentration Mean” value ([1]; iv, 8 hr) was 0.01945 µg/mL and the “Plasma Concentration Mean” value ([1]; iv, 10 hr) was 0.00633 µg/mL. For the same compound, the “Plasma Concentration” value ([1]; iv, 12 hr) was 0 µg/mL, the “Plasma Concentration” value ([1]; iv, 24 hr) was 0 µg/mL and the “Plasma Concentration Mean” value ([1]; po, 0.25 hr) was 2.15289 µg/mL. For the same compound, the “Plasma Concentration Mean” value ([1]; po, 0.5 hr) was 2.1806 µg/mL, the “Plasma Concentration Mean” value ([1]; po, 1 hr) was 1.89282 µg/mL and the “Plasma Concentration Mean” value ([1]; po, 2 hr) was 1.33756 µg/mL. For the same compound, the “Plasma Concentration Mean” value ([1]; po, 4 hr) was 0.6125 µg/mL, the “Plasma Concentration Mean” value ([1]; po, 6 hr) was 0.22499 µg/mL and the “Plasma Concentration Mean” value ([1]; po, 8 hr) was 0.07133 µg/mL. The “Plasma Concentration Mean” value ([1]; po, 10 hr) was 0.01992 µg/mL, the “Plasma Concentration Mean” value ([1]; po, 12 hr) was 0.00172 µg/mL and the “Plasma Concentration” value ([1]; po, 24 hr) was 0 µg/mL. The Vd (in vivo; iv) was 0.76 L/kg, the clearance (in vivo; iv) was 0.55 L/h/kg and the concentration at 12 hr (in vivo; iv) was 0 µg/mL. The concentration at 24 hr (in vivo; iv) was 0 µg/mL, the AUC(0-inf) (in vivo; po) was 6.94 µg·h/mL and the Cmax (in vivo; po) was 2.37 µg/mL. The concentration at 10 hr (in vivo; po) was 0 µg/mL, the concentration at 12 hr (in vivo; po) was 0 µg/mL and the concentration at 24 hr (in vivo; po) was 0 µg/mL.
With `[2H]C1([2H])CN(c2ccc(N3C[C@H](CNC(C)=O)OC3=O)cc2F)CC([2H])([2H])O1` [compound 10, (S)—N-((3-(3-Fluoro-4-(2,2,6,6-d4-morpholino)phenyl)-2-oxooxazolidin-5-yl)methyl)acetamide] the “volume of distribution at terminal phase as % of total body water” value ([1]; iv) was 113.43%, the “Plasma Concentration” value ([1]; po, 12 hr) was 0 µg/mL and the mitochondria toxicity [2] was “comparable to that of linezolid”. The concentration at 10 hr (in vivo; iv) was 0 µg/mL and the concentration at 12 hr (in vivo; po) was 0 µg/mL.
